Values quoted from earlier work, collected in patent US10596124B2, “Lipid nanoparticle compositions and methods as carriers of cannabinoids in standardized precision-metered dosage forms” (NanoSphere Health Sciences, LLC, priority 2015, dated 2020).

Conditions: intranasal

SMILES: C=C(C)[C@@H]1CCC(C)=C[C@H]1c1c(O)cc(CCCCC)cc1O [CBD, cannabidiol]
- time to absorption into the systemic circulation: ≤ 10 min
